According to patent US20230000852A1, “Treatment of Dermal Cytokine Storm Syndromes” (Bridge Pharma, Inc., priority 2021, published 2023):
Where a name gives a salt, the structure may show the parent alone.

How the values were obtained:
IL-1β = assay: PHA-induced IL-1β release from human leucocytes (buffy coats); type: cell-based; details: Leucocyte, 10 uM, 30 min pre-incubation, PHA 5 μg/ml 16 hours
Procedure: (§1) The objective of this study was to assess the ability of norketotifen to inhibit cytokine release from stimulated human leucocytes.
(§2) The study was conducted in two phases. The first phase included optimization of the test methodology and including dose-range finding studies, using buffy coats from 3 human donors, stimulated with phytohemagglutinin (PHA). Following optimization of the test conditions, a final protocol was issued. In the ensuing Main Study, white blood cells (buffy coats) from 5 healthy human donors were stimulated with PHA, 5 μg/ml. The concentrations of the test article and the duration of exposure were optimized to obtain acceptable dose-response ratios. Thus, the inhibitory effects of three concentrations of NK and one concentration of ketotifen were evaluated in the Main Study. The buffy coats containing white blood cells from 5 male human donors were resuspended in assay media and were pre-incubated for 30 min with either vehicle/saline, ketotifen 4.3 μg/ml (10 μM) and norketotifen 0.4 μg/ml, 4.1 μg/ml and 41 μg/ml (1.0; 10 and 100 μM). Following these preincubations, the white blood cells were stimulated for 16 hours with PHA, 5 μg/ml. The cell system supernatants were then harvested and stored frozen pending analyses.
(§3) The concentration of the test articles had to be high in this ex vivo study since the test kit used a high concentration of the agonist PHA (5 μg/ml) and a long exposure time (16 hrs).

IL-6 = assay: PHA-induced IL-6 release from human leucocytes (buffy coats); type: cell-based; details: Leucocyte, 10 uM, 30 min pre-incubation, PHA 5 μg/ml 16 hours
Procedure: as §1, §2, §3

TNFα = assay: PHA-induced TNFα release from human leucocytes (buffy coats); type: cell-based; details: Leucocyte, 10 uM, 30 min pre-incubation, PHA 5 μg/ml 16 hours
Procedure: as §1, §2, §3

IL-4 = assay: PHA-induced IL-4 release from human leucocytes (buffy coats); type: cell-based; details: Leucocyte, 10 uM, 30 min pre-incubation, PHA 5 μg/ml 16 hours
Procedure: as §1, §2, §3

IL-2 = assay: PHA-induced IL-2 release from human leucocytes (buffy coats); type: cell-based; details: Leucocyte, 10 uM, 30 min pre-incubation, PHA 5 μg/ml 16 hours
Procedure: as §1, §2, §3

IL-8 = assay: PHA-induced IL-8 release from human leucocytes (buffy coats); type: cell-based; details: Leucocyte, 10 uM, 30 min pre-incubation, PHA 5 μg/ml 16 hours
Procedure: as §1, §2, §3

IL-10 = assay: PHA-induced IL-10 release from human leucocytes (buffy coats); type: cell-based; details: Leucocyte, 10 uM, 30 min pre-incubation, PHA 5 μg/ml 16 hours
Procedure: as §1, §2, §3

IL-13 = assay: PHA-induced IL-13 release from human leucocytes (buffy coats); type: cell-based; details: Leucocyte, 10 uM, 30 min pre-incubation, PHA 5 μg/ml 16 hours
Procedure: as §1, §2, §3

INF-γ = assay: PHA-induced INF-γ release from human leucocytes (buffy coats); type: cell-based; details: Leucocyte, 10 uM, 30 min pre-incubation, PHA 5 μg/ml 16 hours
Procedure: as §1, §2, §3

[1] = tested on: human leucocytes (buffy coats); assay: Cytokine and chemokine release from stimulated human leucocytes, overall; type: cell-based; details: PHA 5 μg/ml, 16 hours
Procedure: as §1
as §2, with “analyses. […]” for “analyses.”

[2] = tested on: shaved skin of Gottingen minipigs; assay: Skin irritation study in Göttingen mini pigs; type: in vivo, Göttingen minipigs; details: dermal once daily for four consecutive days
Procedure: To assess possible skin irritation following repeated dermal application of racemic norketotifen as a hydrogen fumarate salt (NK-HF) to Gottingen Minipigs.
Standard creamy polyethylene-glycol (PEG400/PEG4000; herein called PEG) formulations containing 0% (vehicle control), 5% or 10% of RS-norketotifen hydrogen fumarate (NK-HF) were prepared and applied once daily for four consecutive days to three marked areas (3 inches×3 inches) of the shaved skin of Gottingen minipigs pigs (2M+2F, 7-8 months; 9.7-11.6 kg). The volumes used for each application were 3.5 mL). Four animals were used in this study. The number of animals was intended to satisfy regulatory guidelines, to meet general scientific principles and to meet Bridge Pharma's animal-sparing commitments. The vehicle and the test articles were applied once daily for four consecutive days, and erythema (redness), edema (swelling) and eschar (scab) were assessed by the Study Director, who personally assessed and scored the appearance of the skin before the daily cream applications and four hours thereafter on Days 1 through 4. Additional inspections and scorings were performed on Day 5, twenty-four hours after the last (Day 4) applications of the vehicle and test articles.

[3] = tested on: IL31-induced (SC) pruritus; assay: IL-31-induced pruritus in mice; type: in vivo; details: for Pruritic Bouts Mean ± SEM: 10 mg/kg oral 60 minutes before murine IL31 1.0 μg/30 gram SC, counted for 120 min, N 8; for Protection: 10 mg/kg oral 60 minutes before murine IL31 SC, vs vehicle
Procedure: To determine if NK inhibits IL31-induced pruritus in mice. Studies have now been performed, using murine IL31 as a pruritogen. Mice were dosed orally with a test article exactly 60 minutes before murine IL31 at a dose of 1.0 μg/30 gram body weight was injected subcutaneously into a previously depilated area on the rostral part of the back of mice. IL31 was dissolved in phosphate buffered saline (PBS) with 0.1% bovine serum albumin (BSA). The injected volume was 0.1 ml/mouse. The bouts of scratching were counted for 120 min, starting 30 min after the injection of IL31. The bouts of scratching were counted by trained laboratory personnel who were unaware of the pretreatment of the animals. Oclacitinib (Apoquel®) is a Janus kinase inhibitor that is the worldwide market leader for oral treatment of atopic dermatitis in dogs.

[4] = Dermal and plasma concentrations of NK after oral dosing to dogs; type: in vivo; details: for AUC∞ Plasma / MRT Plasma / T1/2 Plasma / AUC∞ Skin / MRT Skin / T1/2 Skin: oral S-NK 8.0 mg/kg/day for 28 days, dogs (N = 5)
Procedure: The purpose was to determine drug concentrations and calculate pharmacokinetics in the skin and plasma of dogs during and following daily oral administration of S-NK-HF (the S-isomer of norketotifen hydrogen fumarate) for four weeks.
Five male beagle dogs, weighing 11.2-13.9 kg (2-4 years old) were included in the study. All animals were administered p.o. doses of the test article 8.0 mg/kg/day as a hydrogen fumarate salt, equal to 5.6 mg/kg/day of the free base. A single isomer of NK was used, since an objective of this study was also to assess the racemization of the NK isomers. The animals were dosed once daily for four weeks followed by daily observations and tissue sampling for an additional two-week washout period.
Multiple plasma samples and skin biopsies were taken from each dog on Day 1 and Day 28 of drug administration. The plasma and skin samplings were performed at pre-dose, and at 2, 6, 12, and 24 hours post-dose. Plasma and skin samples were also taken intermittently at predetermined intervals during the 28-days dosing period and up to the last day of the study, which was Day 42. Blood samples were taken from v. cephalica antebrachii. Skin biopsies were taken from the area between the mid ventral to lateral abdominal areas, using a 6 mm skin biopsy punch. Subcutaneous fat deposits were carefully trimmed from the skin samples and the skin samples were then weighed. All plasma and skin samples were analyzed using LC/MS/MS methodology.

SMILES	Pruritic Bouts Mean ± SEM [3]	Protection [3] [%]	AUC∞ Plasma [4]	MRT Plasma [4] [h]	T1/2 Plasma [4] [h]	AUC∞ Skin [4]	MRT Skin [4] [h]	T1/2 Skin [4] [h]	other results
CN1CCC(=C2c3ccccc3CC(=O)c3sccc32)CC1 [Ketotifen, ketotifen, reference compound]	–	–	–	–	–	–	–	–	inhibition at 10 µM (IL-1β): 0%; inhibition at 10 µM (IL-6): 0%; inhibition at 10 µM (TNFα): 0%; inhibition at 10 µM (IL-4): 0%; inhibition at 10 µM (IL-2): 0%; inhibition at 10 µM (IL-8): 20%; inhibition at 10 µM (IL-10): 0%; inhibition at 10 µM (IL-13): 0%; inhibition at 10 µM (INF-γ): 0%; Inhibition of release of cytokines and chemokines from human white blood cells (in words) [1]: No statistically significant inhibition
O=C(O)C=CC(=O)O.O=C1Cc2ccccc2C(=C2CCNCC2)c2ccsc21 [NK-HF, RS-norketotifen hydrogen fumarate]	93 ± 10	54	–	–	–	–	–	–	Skin irritation (erythema, edema, eschar) ([2]; 5% in creamy PEG formulation): did not induce any irritation; Skin irritation (erythema, edema, eschar) ([2]; 10% in creamy PEG formulation): did not induce any irritation
CNS(=O)(=O)C[C@H]1CC[C@H](N(C)c2ncnc3[nH]ccc23)CC1 [Oclacitinib maleate, Oclacitinib, reference compound]	116 ± 29	43	–	–	–	–	–	–	–
O=C(O)/C=C/C(=O)O.O=C1Cc2ccccc2C(=C2CCNCC2)c2ccsc21 [R-NK, R-norketotifen]	–	–	1658 ng*hr/mL or g	14.1	7.7	20376 ng*hr/mL or g	159.1	157.0	–
O=C1Cc2ccccc2C(=C2CCNCC2)c2ccsc21 [S-NK, S-norketotifen]	–	–	1627 ng*hr/mL or g	11.3	10.9	25710 ng*hr/mL or g	159.0	162.7	Racemization after oral administration of the single isomer ([4]; dogs, oral): RS-norketotifen was rapidly formed
